Assay results published in publication PMC11278161 (Marine Drugs, 2024).

System: A549 cells
Assay: cells
Details: Homo sapiens, A549, 72 h, read-out: IC50, cytotoxicity for A549

CC[C@@]1(O)C(=O)OCc2c1cc1n(c2=O)Cc2cc3ccccc3nc2-1 [CPT, Camptothecin]
IC50: 260 nM
